Data published in patent publication US20150289513A1, “USE OF A COMPOUND COMPRISING A POLYFLUOROBENZYL MOIETY AGAINST INSECTICIDE-RESISTANT PESTS” (priority 2012, published 2015).

Legend:
[1] = test system: Anopheles gambiae (target-site-resistant and metabolic-resistant strain: RSPH); assay: Glazed tile contact test, knock-down; assay type: in vivo
Experimental: To produce a suitable preparation Transfluthrin was dissolved in acetone. The active compound solution was pipetted onto a glazed tile and, after drying, adult mosquitoes of the species: • Anopheles gambiae (target-site-resistant and metabolic-resistant strain: RSPH), • Anopheles gambiae (target-site-resitant and metabolic-resistant strain: Tiassalé), • Anopheles gambiae (tar et-site-resitant and metabolic-resistant strain: Akron), • Anopheles gambiae (target-site-resistant strain: VK7), and • Anopheles funestus (metabolic-resistant strain FUMOZ-R) were placed onto the treated tile (each strain was tested on separate tiles). The exposition time was 30 minutes.
(§1) 0.25 hours, 0.5 hours, 1 hour, 2 hour, 3 hour, 4 hour and 24 hours after contact to the treated surface, the knock-down proportion of the test animals in % was determined. Here, 100% (effect) means that all mosquitoes have been killed; 0% (effect) means that none of the mosquitoes have been killed.
Similarly as outlined in example 2 for Transfluthrin, Metofluthrin efficacy was assessed against • Anopheles gambiae (target-site-resistant and metabolic-resistant strain: RSPH), • Anopheles funestus (metabolic-resistant strain FUMOZ-R), and • Culex quinquefasciatus (metabolic-resistant to DDT; strain P00), with the results shown in Tables 10 to 12. 0.25 hours, 0.5 hours, 1 hour, 2 hour, 3 hour, 4 hour and 24 hours after contact to the treated surface, the knock-down proportion of the test animals in % is depicted in Tables 10 to 12. 100% (effect) means that all mosquitoes have been killed; 0% (effect) means that none of the mosquitoes have been killed.
Similarly as outlined in example 2 for Transfluthrin, Metofluthrin efficacy was assessed against • Anopheles gambiae (target-site-resistant and metabolic-resistant strain: RSPH), • Anopheles funestus (metabolic-resistant strain FUMOZ-R), and with the results shown in Tables […]. 0.25 hours, 0.5 hours, 1 hour, 2 hour and 3 hours after contact to the treated surface, the knock-down proportion of the test animals in % is depicted in Tables 13 to 14. 100% (effect) means that all mosquitoes have been killed; 0% (effect) means that none of the mosquitoes have been killed.

[2] = test system: Aedes aegypti (target-site-resistant strain: Grand Cayman); assay: Glazed tile contact test, knock-down; assay type: in vivo
Experimental: To produce a suitable preparation Transfluthrin was dissolved in acetone. The active compound solution was pipetted onto a glazed tile and, after drying, adult mosquitoes of the species Aedes aegypti (target-site-resistant strain: Grand Cayman) were placed onto the treated tile. The exposition time was 30 minutes.
as §1

[3] = 0.064 g/ha, 0.25 h after contact
[4] = 0.064 g/ha, 0.5 h after contact
[5] = 0.32 g/ha, 0.25 h after contact

Measured: Effect %

CC=CC1C(C(=O)OCc2c(F)c(F)c(COC)c(F)c2F)C1(C)C (stereo not shown) [Metofluthrin, 2,3,5,6-Tetrafluoro-4-(methoxymethyl)benzyl 2,2-dimethyl-3-(prop-1-en-1-yl)cyclopropanecarboxylate]
20%: [1]; 0.064 g/ha, 24 h after contact | [1]; 0.32 g/ha, 24 h after contact
100%: [1]; 1.6 g/ha, 0.25 h after contact | [1]; 1.6 g/ha, 0.5 h after contact | [1]; 1.6 g/ha, 1 h after contact | [1]; 1.6 g/ha, 2 h after contact | [1]; 1.6 g/ha, 3 h after contact | [1]; 1.6 g/ha, 4 h after contact | [1]; 1.6 g/ha, 24 h after contact | [1]; 8 g/ha, 0.25 h after contact | [1]; 8 g/ha, 0.5 h after contact | [1]; 8 g/ha, 1 h after contact | [1]; 8 g/ha, 2 h after contact | [1]; 8 g/ha, 3 h after contact | [1]; 8 g/ha, 4 h after contact | [1]; 8 g/ha, 24 h after contact | [1]; 40 g/ha, 0.25 h after contact | [1]; 40 g/ha, 0.5 h after contact | [1]; 40 g/ha, 1 h after contact | [1]; 40 g/ha, 2 h after contact | [1]; 40 g/ha, 3 h after contact | [1]; 40 g/ha, 4 h after contact | [1]; 40 g/ha, 24 h after contact | [1]; 200 g/ha, 0.25 h after contact | [1]; 200 g/ha, 0.5 h after contact | [1]; 200 g/ha, 1 h after contact | [1]; 200 g/ha, 2 h after contact | [1]; 200 g/ha, 3 h after contact | [1]; 200 g/ha, 4 h after contact | [1]; 200 g/ha, 24 h after contact | [1]; 1000 g/ha, 0.25 h after contact | [1]; 1000 g/ha, 0.5 h after contact | [1]; 1000 g/ha, 1 h after contact | [1]; 1000 g/ha, 2 h after contact | [1]; 1000 g/ha, 3 h after contact | [1]; 1000 g/ha, 4 h after contact | [1]; 1000 g/ha, 24 h after contact
0%: [1]; [3] | [1]; [4] | [1]; 0.064 g/ha, 1 h after contact | [1]; 0.064 g/ha, 2 h after contact | [1]; 0.064 g/ha, 3 h after contact | [1]; [5] | [1]; 0.32 g/ha, 3 h after contact
10%: [1]; 0.064 g/ha, 4 h after contact | [1]; 0.32 g/ha, 0.5 h after contact | [1]; 0.32 g/ha, 1 h after contact | [1]; 0.32 g/ha, 2 h after contact | [1]; 0.32 g/ha, 4 h after contact

CC1(C)[C@H](C=C(Cl)Cl)[C@H]1C(=O)OCc1c(F)c(F)cc(F)c1F [Transfluthrin, (1R,3S)-3-(2,2-Dichlorovinyl)-2,2-dimethyl-1-cyclopropanecarboxylic acid (2,3,5,6-tetrafluorophenyl)methyl ester]
20%: [2]; [5] | [2]; 0.32 g/ha, 2 h after contact | [2]; 0.32 g/ha, 3 h after contact | [2]; 0.32 g/ha, 24 h after contact
5%: [2]; [3]
65%: [2]; 1.6 g/ha, 3 h after contact
90%: [2]; 8 g/ha, 0.25 h after contact | [2]; 8 g/ha, 2 h after contact | [2]; 8 g/ha, 4 h after contact | [2]; 8 g/ha, 24 h after contact
100%: [2]; 8 g/ha, 0.5 h after contact | [2]; 8 g/ha, 1 h after contact | [2]; 8 g/ha, 3 h after contact | [2]; 40 g/ha, 0.25 h after contact | [2]; 40 g/ha, 0.5 h after contact | [2]; 40 g/ha, 1 h after contact | [2]; 40 g/ha, 2 h after contact | [2]; 40 g/ha, 3 h after contact | [2]; 40 g/ha, 4 h after contact | [2]; 40 g/ha, 24 h after contact | [2]; 200 g/ha, 0.25 h after contact | [2]; 200 g/ha, 0.5 h after contact | [2]; 200 g/ha, 1 h after contact | [2]; 200 g/ha, 2 h after contact | [2]; 200 g/ha, 3 h after contact | [2]; 200 g/ha, 4 h after contact | [2]; 200 g/ha, 24 h after contact
0%: [2]; [4] | [2]; 0.064 g/ha, 1 h after contact | [2]; 0.064 g/ha, 2 h after contact | [2]; 0.064 g/ha, 3 h after contact | [2]; 0.064 g/ha, 4 h after contact
25%: [2]; 0.32 g/ha, 0.5 h after contact | [2]; 0.32 g/ha, 4 h after contact
10%: [2]; 0.064 g/ha, 24 h after contact
60%: [2]; 1.6 g/ha, 0.5 h after contact | [2]; 1.6 g/ha, 4 h after contact
30%: [2]; 0.32 g/ha, 1 h after contact
70%: [2]; 1.6 g/ha, 0.25 h after contact | [2]; 1.6 g/ha, 1 h after contact | [2]; 1.6 g/ha, 2 h after contact | [2]; 1.6 g/ha, 24 h after contact
